± gives the standard deviation of the averaged measurements.
Tests used:
Conditions in all cases: 72 h
BV-173 [1] = tested on: BV-173
How it was run: (§1)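 Each of fifteen myeloid leukaemia cell lines was seeded in RPMI 1640 at a density titrated to its linear growth range. The cells were incubated for 72 h at 37 °C and 5% CO2 with compounds at five tenfold doses from 1 to 10,000 nM, in duplicate. After ATP luminescence was normalised to vehicle and to a positive control at 10 µM, four-parameter log-logistic curves were fitted. These curves gave the IC50.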

HEL [2] = tested on: HEL
How it was run: as §1

HL-60 [3] = tested on: HL-60
How it was run: as §1

K-562 [4] = tested on: K-562
How it was run: as §1

KCL-22 [5] = tested on: KCL-22
How it was run: as §1

KG-1 = tested on: KG-1
How it was run: as §1

KU-812 [6] = tested on: KU-812
How it was run: as §1

LAMA-84 [7] = tested on: LAMA-84
How it was run: as §1

ML-2 [8] = tested on: ML-2
How it was run: as §1

MOLM-13 = tested on: MOLM-13
How it was run: as §1

MV4-11 = tested on: MV4-11
How it was run: as §1

Mono-Mac-6 [9] = tested on: Mono-Mac-6
How it was run: as §1

NOMO-1 [10] = tested on: NOMO-1
How it was run: as §1

SHI-1 [11] = tested on: SHI-1
How it was run: as §1

THP-1 = tested on: THP-1
How it was run: as §1

HL-60 [12] = assay: cell viability (% survival relative to DMSO control); higher = less cytotoxic
How it was run: (§2)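 A rescreen of the full library used HL-60 cells in RPMI 1640 with 10% FBS on 384-well plates, run in duplicate at five tenfold concentrations (1–10,000 nM). Each screen included DMSO or 100 nM of one of three metabolic inhibitors and ran 72 h at 37 °C, 5% CO2. CellTiter-Glo viability was scaled between DMSO and 10 μM proteasome-inhibitor wells. Any area under the curve comes from four-parameter log-logistic fits with drc and PharmacoGx.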

BV-173 [13] = assay: cell viability (% survival relative to DMSO control, bortezomib = 0%); higher = less cytotoxic
How it was run: (§3)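 Fifteen myeloid leukaemia cell lines were exposed to compounds at 1, 10, 100, 1000 or 10000 nM in 384-well plates for 72 h at 37 °C and 5% CO2. Viability was read by CellTiter-Glo luminescence and normalised, with vehicle as 100% and a 10 µM positive control as 0%. Values are percent survival averaged over duplicates.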

HEL [14] = assay: as above
How it was run: as §3

HL-60 [15] = assay: as above
How it was run: as §3

K-562 [16] = assay: as above
How it was run: as §3

KCL-22 [17] = assay: as above
How it was run: as §3

KU-812 [18] = assay: as above
How it was run: as §3

LAMA-84 [19] = assay: as above
How it was run: as §3

ML-2 [20] = assay: as above
How it was run: as §3

Mono-Mac-6 [21] = assay: as above
How it was run: as §3

NOMO-1 [22] = assay: as above
How it was run: as §3

SHI-1 [23] = assay: as above
How it was run: as §3

HL-60 [24] = assay: area under dose-response curve (viability, 1 nM-10 uM) (fraction (0-1)); higher = more sensitive
How it was run: as §2

O=C(O)c1cc(Cl)cc(Cl)c1O [3,5-Dichlorosalicylic Acid]
Conditions | IC50 (cell viability) [µM]
BV-173 [1] | > 10
HEL [2] | > 10
HL-60 [3] | > 10
K-562 [4] | > 10
KCL-22 [5] | > 10
KG-1 | > 10
KU-812 [6] | > 10
LAMA-84 [7] | > 10
ML-2 [8] | > 10
MOLM-13 | > 10
MV4-11 | > 10
Mono-Mac-6 [9] | > 10
NOMO-1 [10] | > 10
SHI-1 [11] | > 10
THP-1 | > 10

cell viability [%], HL-60 [12]
Conditions | 0.001 µM | 0.01 µM | 0.1 µM | 1 µM | 10 µM
co-treatment: AZD3965 100 nM | 107 ± 1.5 | 98.5 ± 2.3 | 99.4 ± 1.1 | 101 ± 4.1 | 101 ± 4.9
co-treatment: DMSO vehicle | 104 ± 1.9 | 105 ± 2.4 | 101 ± 2.7 | 106 ± 6.3 | 101 ± 5.5
co-treatment: GSK2194069 100 nM | 97.6 ± 4.4 | 97 ± 9.9 | 95.56 ± 0.17 | 97.5 ± 9 | 102 ± 7.3
co-treatment: pictilisib 100 nM | 80.1 ± 5.9 | 93.1 ± 1.8 | 100 ± 1.9 | 107 ± 2.9 | 103 ± 8.5

Conditions | area under dose-response curve, co-treatment: AZD3965 100 nM | area under dose-response curve, co-treatment: DMSO vehicle | area under dose-response curve, co-treatment: GSK2194069 100 nM | area under dose-response curve, co-treatment: pictilisib 100 nM | cell viability, 1 nM [%] | cell viability, 10 nM [%] | cell viability, 100 nM [%] | cell viability, 1000 nM [%] | cell viability, 10000 nM [%]
BV-173 [13] | – | – | – | – | 107 | 86.1 | 119 | 106 | 106
HEL [14] | – | – | – | – | 102 | 111 | 98.6 | 111 | 104
HL-60 [15] | – | – | – | – | 106 | 136 | 84.5 | 117 | 93.5
HL-60 [24] | < 0.0301 | < 0.0301 | < 0.0301 | < 0.0301 | – | – | – | – | –
K-562 [16] | – | – | – | – | 107 | 125 | 104 | 111 | 90.9
KCL-22 [17] | – | – | – | – | 105 | 140 | 87 | 94.7 | 85.9
KU-812 [18] | – | – | – | – | 90.5 | 93.7 | 95.8 | 109 | 87.3
LAMA-84 [19] | – | – | – | – | 105 | 87.4 | 97.5 | 103 | 92
ML-2 [20] | – | – | – | – | 97.4 | 99.8 | 95.6 | 107 | 93.1
Mono-Mac-6 [21] | – | – | – | – | 106 | 102 | 93.7 | 107 | 89.7
NOMO-1 [22] | – | – | – | – | 93.9 | 94.9 | 88.1 | 105 | 98.7
SHI-1 [23] | – | – | – | – | 110 | 105 | 98.4 | 111 | 90

O=C(O)C(=O)CBr [3-bromopyruvic acid]
Conditions | IC50 (cell viability) [µM]
BV-173 [1] | > 10
HEL [2] | > 10
HL-60 [3] | > 10
K-562 [4] | > 10
KCL-22 [5] | > 10
KG-1 | > 10
KU-812 [6] | > 10
LAMA-84 [7] | > 10
ML-2 [8] | > 10
MOLM-13 | > 10
MV4-11 | > 10
Mono-Mac-6 [9] | > 10
NOMO-1 [10] | > 10
SHI-1 [11] | > 10
THP-1 | > 10

cell viability [%], HL-60 [12]
Conditions | 0.001 µM | 0.01 µM | 0.1 µM | 1 µM | 10 µM
co-treatment: AZD3965 100 nM | 99.1 ± 3.7 | 101 ± 3.3 | 99.2 ± 2.7 | 98.3 ± 2.4 | 95.8 ± 3.9
co-treatment: DMSO vehicle | 99.1 ± 2 | 99.308 ± 0.03 | 97.7 ± 1.7 | 99.6 ± 2.4 | 98 ± 1.7
co-treatment: GSK2194069 100 nM | 97.451 ± 0.0089 | 96.2 ± 15 | 98.9 ± 3.1 | 103 ± 4 | 98.5 ± 5.4
co-treatment: pictilisib 100 nM | 112 ± 3.5 | 93.8 ± 6.9 | 92.943 ± 0.068 | 97.2 ± 8.2 | 96.5 ± 13

Conditions | area under dose-response curve, co-treatment: AZD3965 100 nM | area under dose-response curve, co-treatment: DMSO vehicle | area under dose-response curve, co-treatment: GSK2194069 100 nM | area under dose-response curve, co-treatment: pictilisib 100 nM | cell viability, 1 nM [%] | cell viability, 10 nM [%] | cell viability, 100 nM [%] | cell viability, 1000 nM [%] | cell viability, 10000 nM [%]
BV-173 [13] | – | – | – | – | 107 | 85.9 | 99 | 91.7 | 99.7
HEL [14] | – | – | – | – | 90 | 83.1 | 92.2 | 96.2 | 112
HL-60 [15] | – | – | – | – | 89.4 | 109 | 103 | 87.3 | 167
HL-60 [24] | < 0.0301 | < 0.0301 | < 0.0301 | < 0.0301 | – | – | – | – | –
K-562 [16] | – | – | – | – | 91.3 | 97.6 | 92.3 | 103 | 106
KCL-22 [17] | – | – | – | – | 99.6 | 75.3 | 91.7 | 93.1 | 106
KU-812 [18] | – | – | – | – | 88 | 88.9 | 99.8 | 97.6 | 105
LAMA-84 [19] | – | – | – | – | 90.8 | 101 | 99.5 | 99.4 | 98
ML-2 [20] | – | – | – | – | 91 | 78.4 | 102 | 102 | 99.4
Mono-Mac-6 [21] | – | – | – | – | 96.3 | 93 | 93.2 | 105 | 94.3
NOMO-1 [22] | – | – | – | – | 93.3 | 95 | 101 | 98.1 | 98
SHI-1 [23] | – | – | – | – | 98.8 | 98.3 | 117 | 99.6 | 110

From the supplement of paper PMC8671470
